The source of these data is US8822448B2, “Pyrazoloquinoline compound” (Astellas Pharma Inc., priority 2010, dated 2014).

As a reminder, the melting point is the temperature, or range, at which the solid turns liquid.

One data set deals with PDE9 (Homo sapiens (Human), UniProt O76083). As to the kind of experiment: PDE9-inhibiting activity (SPA enzyme assay). The data set is classed as biochemical. Particulars: IC50 values; cGMP 1 μM substrate, 30° C.; read-out: PDE9 inhibition. As for the experimental part:
The PDE9-inhibiting activity was measured by the following method. That is, to a buffer solution containing tris(hydroxymethyl)aminomethane-hydrochloric acid (40 mM, pH 8.0), magnesium chloride (5 mM), and 2-mercaptoethanol (4 mM) were added cGMP (1 μM) and ^3H-cGMP (0.33 μCi/ml) to give a substrate buffer solution. A test substance solution and an enzyme solution which had been adjusted to an optimal concentration were added thereto to perform a reaction at 30° C. The enzyme reaction was stopped by the addition of Scintillation Proximity Assay (SPA) Beads (Perkin Elmer, USA) containing 5 mM 3-isobutyl-1-methylxanthine (IBMX). For the enzyme activity, the amount of 5′-GMP, which is a reaction degradation product bound to SPA beads, was measured with a TopCount microplate reader (Hewlett Packard, USA). The inhibitory rate was calculated by taking the radioactivity of the control containing no test substance as (A), taking the radioactivity of the blank containing no enzyme as (B), and taking the radioactivity of the test substance as (C), and using the following equation.

The subject of data set [1] is urethra relaxation response. Description: Simultaneous measurement model for rat bladder contraction/urethra relaxation responses. It counts as in vivo. Particulars: female SD rat, increase relative to the solvent administration group, read-out: Ratio with increased urethra relaxation time during voiding (vs vehicle) (%). As to the method: Simultaneous measurement of the bladder contraction and urethra relaxation responses using a rat was carried out with a partial modification of a method in Wibberley et al. (Wibberley, A., et al., Br. J. Pharmacol., 136: pp. 399-414 (2002)). That is, a female Sprague-Dawley (SD) rat (Charles River Laboratories Japan, Inc.) was anesthetized with urethane, and the bladder was exposed by a midline incision in the lower abdomen. A double lumen cannula (a cannula having a dual structure by PE190 and PE50) from the bladder apex was inserted into the bladder, and the bladder apex and the cannula were fixed by sutures at a point where the tip reached the proximal urethra. While infusing physiological saline into the urethra through the outer cannula, the urethral inner pressure was measured by a pressure transducer through the inner cannula with a saline solution infused into the urethra through the outer cannula. On the other hand, a single cannula (PESO) was inserted into the bladder from the bladder apex and placed therein. The inner pressure of the bladder was measured through this cannula. After a postoperative stabilization period had passed, physiological saline was infused into the bladder through the cannula of the bladder apex to cause a bladder contraction reaction, and thus cause a urethra relaxation response accompanying the bladder contraction reflex. The test substance was administered intravenously or intraduodenally.

Structures are written as SMILES.

Chain of PDE9 (O76083 whole entry): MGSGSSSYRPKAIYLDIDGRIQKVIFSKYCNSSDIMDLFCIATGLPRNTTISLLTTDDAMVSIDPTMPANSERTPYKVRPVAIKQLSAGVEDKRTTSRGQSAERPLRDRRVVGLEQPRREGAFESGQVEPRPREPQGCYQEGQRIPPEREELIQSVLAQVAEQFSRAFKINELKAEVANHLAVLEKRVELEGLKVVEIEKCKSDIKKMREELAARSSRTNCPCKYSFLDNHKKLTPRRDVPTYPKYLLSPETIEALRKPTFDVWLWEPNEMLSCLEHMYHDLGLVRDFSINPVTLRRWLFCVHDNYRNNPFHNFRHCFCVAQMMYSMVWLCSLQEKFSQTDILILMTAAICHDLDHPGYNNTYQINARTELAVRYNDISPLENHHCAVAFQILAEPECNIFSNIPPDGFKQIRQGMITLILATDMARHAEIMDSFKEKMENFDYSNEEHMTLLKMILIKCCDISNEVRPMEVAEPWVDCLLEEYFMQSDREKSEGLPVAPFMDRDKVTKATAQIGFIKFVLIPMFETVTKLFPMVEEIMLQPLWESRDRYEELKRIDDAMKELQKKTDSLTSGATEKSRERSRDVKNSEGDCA

`Cc1cc2[nH]c(=O)c3cnn(C4CCOCC4)c3c2cc1C(=O)N1CCC(Oc2ccccn2)CC1` [Example 22] gave a melting point of 250 to 253 °C. The IC50 on PDE9 was 2.2 nM. Further, the response vs control in vivo at 1 mg/kg in data set [1] amounted to 142%.
The matching figures for `Cc1cc2[nH]c(=O)c3cnn(C4CCOCC4)c3c2cc1C(=O)NCC1(N2CCOCC2)CCCCC1.Cl` [Example 23]: 281 to 283 °C, 0.4 nM and 168%.
On to `Cc1cc2[nH]c(=O)c3cnn(C4CCOCC4)c3c2cc1C(=O)N1CCC(OCC2CC2)CC1` [Example 41], for which the melting point lay within 206 to 208 °C. The IC50 at PDE9 worked out at 5.7 nM. The response vs control in vivo at 1 mg/kg in data set [1] came out at 159%.
As for `CCCOC1CCN(C(=O)c2cc3c(cc2C)[nH]c(=O)c2cnn(C4CCOCC4)c23)CC1` [Example 53], the melting point was 216 to 218 °C. The IC50 at PDE9 came out at 3.9 nM. Further, the response vs control in vivo at 1 mg/kg in data set [1] was found to be 145%.
Consider `COCCCCN1CCN(C(=O)c2cc3c(cc2C)[nH]c(=O)c2cnn(C4CCC4)c23)CC1` [Example 79], for which the melting point fell in the range of 161 to 163 °C. At PDE9, the IC50 amounted to 23 nM. For the same compound, the response vs control in vivo at 1 mg/kg in data set [1] was 139%.
Compound `COCCCCN1CCN(C(=O)c2cc3c(cc2C)[nH]c(=O)c2cnn(C4CCOCC4)c23)CC1.Cl` [Example 84] displayed a melting point of 240 to 242 °C. Moreover, the IC50 at PDE9 was found to be 9.3 nM. Besides, the response vs control in vivo at 1 mg/kg in data set [1] was determined as 154%.
Take `Cc1cc2[nH]c(=O)c3cnn(C4CCOCC4)c3c2cc1C(=O)N1CCC(OC[C@H](C)F)CC1` [Example 95]: the melting point lay in the range of 209 to 210 °C. Besides, the IC50 at PDE9 is 14 nM. For the same compound, the response vs control in vivo at 1 mg/kg in data set [1] amounted to 166%.
With `CCOCCCCN1CCN(C(=O)c2cc3c(cc2C)[nH]c(=O)c2cnn(C4CCOCC4)c23)C[C@@H]1C` [Example 109], the IC50 at PDE9 is 5.8 nM. Besides, the response vs control in vivo at 1 mg/kg in data set [1] turned out to be 158%.
`Cc1cc2[nH]c(=O)c3cnn(C4CCOCC4)c3c2cc1C(=O)N1CCN(CCC(F)(F)F)CC1.Cl` [Example 128] gave a melting point of 174 to 176 °C. The IC50 at PDE9 was 5.2 nM. Besides, in data set [1], the response vs control in vivo at 1 mg/kg came out at 136%.
